According to patent US20240182456A1, “2-((4-((S)-2-(4-CHLORO-2-FLUOROPHENYL)-2-METHYLBENZO[D][1,3]DIOXOL-4-YL)PIPERIDIN-1-YL)METHYL)-1-(((S)-OXETAN-2-YL)METHYL)-1H-IMIDAZOLE DERIVATIVES AS ACTIVATORS OF THE GLP1 RECEPTOR FOR THE TREATMENT OF OBESITY” (Novartis AG, priority 2021, published 2024):
One block for each compound: values may come before it.

How the values were obtained:
human GLP1R (hGLP1R) = human GLP1R (hGLP1R) (Homo sapiens, UniProt P43220); assay: Human GLP1R cAMP agonist assay (GloSensor); format: cell-based; conditions: HEK293-SNAP-hGLP1R-GloSensor cells; for Emax: cAMP, normalized to GLP1(7-36) maximum response, read-out: Emax mean; for EC50: intracellular cAMP, mean n=3 where SEM is given
Method: Compounds 1 to 31 were tested in the following cellular assays that measure the intracellular cAMP concentration, beta-arrestin recruitment and receptor internalization. The cAMP is generated by the activation of GLP1R. The cAMP data obtained is shown in Table 1 (where S.E.M. is included, mean n=3 independent experiments+/−S.E.M). Beta-arrestin is recruited upon activation of GLP1R and the data obtained are shown in Table 2 (mean n=2 independent experiments, +/−S.D). The extent to which the GLP1R is internalized into the cell and away from the plasma membrane following activation is also shown in Table 2 (mean n=2 independent experiments, +/−S.D). EC50 for each assay is defined as the concentration of the compound that leads to half of the maximum response (after baseline correction). Emax is defined as the maximum response observed for the test compound, normalized to the maximum response observed for the endogenous ligand (GLP1(7-36)) to GLP1R.
Human GLP1R cAMP Agonist Assay
The agonist activity of compounds was determined using the GloSensor™ cAMP Assay (Promega Corp.), which measures changes in the intracellular concentration of cAMP after ligand activation of GPCRs. The assay uses a biosensor encoded by pGloSensor™-22F cAMP plasmid (Promega, cat #E2301) with cAMP binding domains fused to a mutant form of Photinus pyralis luciferase. Binding to cAMP causes conformational changes that promote large increases in light output, which can be measured by a luminescence detector. HEK293-SNAP-hGLP1R-GloSensor cells stably overexpressing the human GLP1 receptor (hGLP1R) and pGloSensor™-22F were seeded in white 384-well poly-D-Lysine coated plates (Greiner Bio One, cat #781945) in CO2-independent media (Gibco cat #18045-088 with 1.0% FBS, 2 mM L-glutamine, penicillin and streptomycin) and incubated overnight at 37° C., 5% CO2 with humidity. The assay was started the following morning by adding an equal volume of CO2-independent media containing 4% v/v dilution of the GloSensor substrate (Promega, cat #E1291) to all wells. The cell plate was incubated at rt for 2 h in the dark. The Biomek 7 (Beckman Coulter) instrument was used for the liquid handling steps. To generate duplicate dose response curves, 3-fold serially diluted compounds were added in to the cell assay plate to a final volume of 60 μL with final concentrations ranging from 30 μM through 0.06 μM in CO2-independent media containing 0.1% BSA, 0.5 mM IBMX and 0.4% DMSO. In the same plate and assay buffer as the tested compounds, were EC100 control wells containing GLP1 (7-36) peptide (Bachem, cat #H-6795) at a final concentration of 2 nM and also EC0 control wells containing no peptide. This plate was incubated at rt in the dark for 12 min after adding the compounds to the cells. Luminescence was then measured with an Envision 2104 Multilabel reader with “TRF Light Unit, 337 nm” (PerkinElmer) using the Ultra-Sensitive protocol setting “384-well US luminescence detector” with the 384-well luminescence aperture, 0.1 seconds per well. cAMP activity was calculated as percent of the GLP1 (7-36) EC100 control wells: [(sample signal−mean EC0 signal)/(mean EC100 of GLP1 (7-36) signal−mean EC0 signal)}*100. Curve fitting for EC50 determinations was performed in the Helios module of the software package DAVID. The 4-parameter logistic model, Hill slope was used: y=Ainf+(A0−Ainf)/(1+(x/AC50)^Hill Slope) where y is the functional response; x is the compound concentration; A0 is the minimum value (at 0 dose); Ainf is the maximum value (at infinite dose); AC50 corresponds to the point of inflection (i.e. the point on the sigmoid shaped curve halfway between A0 and Ainf). The EC50 value was represented by the AC50 value calculated from Helios in μM. Emax is the maximal activity detected within the concentration range, derived from the fitted curve. […]

[1] = Pharmacokinetics in C57BL/6 mice (i.v. and oral); conditions: for AUC(0-inf) / Vd / clearance / half-life / Cmax / Tmax: male, C57BL/6, mouse
Method: Blood concentration versus time profiles were obtained from 2 groups of 3 male mice. The compound was administered intravenously (i.v.) by bolus injection (5 mL/kg) at a dose of 1 mg/kg in N-methyl-2-pyrrolidone (10%) and 4% bovine serum albumins (BSA) in phosphate-buffered saline (PBS) (90%) or orally administered at a dose of 3 mg/kg (10 mL/kg) as a homogenous suspension of Water (99.4%), Tween 80 (0.1%) and methylcellulose (0.5%). Following compound administration, blood (10 μL/time point) were collected by puncture of the tail vein into ethylenediaminetetraacetic (EDTA)-coated tubes, at 0.083 (i.v. only), 0.25, 0.5, 1, 3, 7, & 24 hours post dose.
Bioanalysis: An aliquot of 10 μL of blood sample and matrix calibration standards were added to a 96-well plate. The samples were extracted using a protein precipitation procedure with addition of 80 μL acetonitrile containing internal standard. The samples were vortexed and centrifuged at 3000 rpm for 5 minutes. A 70 μL aliquot of supernatant was transferred to a clean 96-well plate and a 70 μL of water was added to each well and vortexed. Samples were analyzed and quantified by LC-MS/MS using the conditions outlined below.
• Mass Spectrometer: AP16500+ • Liquid Chromatograph: Agilent 1290 for Compound 3; Shimadzu LC30 AD for Compound 5 • Autosampler (ALS): Agilent 1290 for Compound 3; Shimadzu SIL30AC for Compound 5
• LC Column Acquity BEH C18, 50×2.1 mm, 1.7 μm • Solvent A: • 5:95:0.1 (v:v:v) Acetonitrile:Water:Formic Acid for Compound 3 • 100:0.1 (v:v) Water:Formic acid for Compound 5 • Solvent B: • 50:50:0.1 (v:v:v) Acetonitrile:Methanol:Formic Acid for Compound 3 • 100:0.1 (v:v) Acetonitrile:Formic acid for Compound 5 • Injection Volume [μL]: 1 for Compound 5; 20 for Compound 3 • Column Oven Temp. [° C.]: 50 Compound 3; 40 for Compound 5 • ALS Temp. [° C.]: 5
• Ion Source: TIS • Polarity: Positive • Temperature: 550 • Gas 1: 55 • Gas 2: 55 • Curtain Gas: 20 • Ion Spray Voltage [V]: 5500 for Compound 5; 4500 for Compound 3 • CAD Gas: 9

Sequence of human GLP1R (hGLP1R) (P43220 24-463): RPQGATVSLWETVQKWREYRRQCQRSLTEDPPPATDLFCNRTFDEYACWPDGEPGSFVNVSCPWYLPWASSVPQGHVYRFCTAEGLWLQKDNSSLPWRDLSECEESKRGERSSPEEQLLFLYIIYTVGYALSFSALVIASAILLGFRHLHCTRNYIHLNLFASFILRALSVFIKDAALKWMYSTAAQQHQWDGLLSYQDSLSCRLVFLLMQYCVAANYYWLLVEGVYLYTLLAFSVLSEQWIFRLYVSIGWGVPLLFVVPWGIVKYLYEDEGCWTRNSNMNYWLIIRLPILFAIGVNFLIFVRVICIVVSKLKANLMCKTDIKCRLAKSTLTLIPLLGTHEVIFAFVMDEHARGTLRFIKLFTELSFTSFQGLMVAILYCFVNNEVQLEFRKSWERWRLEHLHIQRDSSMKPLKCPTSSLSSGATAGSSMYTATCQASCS

Emax (human GLP1R (hGLP1R)): 104%
EC50 (human GLP1R (hGLP1R)): 0.0473 nM
SMILES: C[C@]1(c2ccc(Cl)cc2F)Oc2cccc(C3CCN(Cc4nc(-c5ccc(F)cc5)c(C#CC(=O)O)n4C[C@@H]4CCO4)CC3)c2O1 [Compound C-29, 3-(2-((4-((S)-2-(4-chloro-2-fluorophenyl)-2-methylbenzo[d][1,3]dioxol-4-yl)piperidin-1-yl)methyl)-4-(4-fluorophenyl)-1-(((S)-oxetan-2-yl)methyl)-1H-imidazol-5-yl)propiolic acid]

Emax (human GLP1R (hGLP1R)): 113%
EC50 (human GLP1R (hGLP1R)): 2.96 nM
SMILES: CCc1nc(CN2CCC(c3cccc4c3O[C@@](C)(c3ccc(Cl)cc3F)O4)CC2)n(C[C@@H]2CCO2)c1C(=O)O [Compound C-27, 2-((4-((S)-2-(4-chloro-2-fluorophenyl)-2-methylbenzo[d][1,3]dioxol-4-yl)piperidin-1-yl)methyl)-4-ethyl-1-(((S)-oxetan-2-yl)methyl)-1H-imidazole-5-carboxylic acid]

Second part, the compound before the results:

SMILES: C[C@]1(c2ccc(Cl)cc2F)Oc2cccc(C3CCN(Cc4nc5ccc(C(=O)O)cc5n4C[C@@H]4CCO4)CC3)c2O1 [compound 1, 2-((4-((S)-2-(4-chloro-2-fluorophenyl)-2-methylbenzo[d][1,3]dioxol-4-yl)piperidin-1-yl)methyl)-1-(((S)-oxetan-2-yl)methyl)-1H-benzo[d]imidazole-6-carboxylic acid, reference compound]
BAV ([1]; male C57BL/6 mice, 3 mg/kg oral dose vs 1 mg/kg i.v.): 50.7%
AUC(0-inf) ([1]; in vivo, iv, 1 mg/kg): 1.19 ± 0.205 µM·h
Vd ([1]; in vivo, iv, 1 mg/kg): 2.13 ± 0.434 L/kg
clearance ([1]; in vivo, iv, 1 mg/kg): 24.1 ± 4.52 mL/min/kg
half-life ([1]; in vivo, iv, 1 mg/kg): 1.25 ± 0.02 h
AUC(0-inf) ([1]; in vivo, po, 3 mg/kg): 1.98 µM·h
Cmax ([1]; in vivo, po, 3 mg/kg): 430 ± 53.4 nM
Tmax ([1]; in vivo, po, 3 mg/kg): 1 h
half-life ([1]; in vivo, po, 3 mg/kg): 3.19 h

SMILES: C[C@]1(c2ccc(Cl)cc2F)Oc2cccc(C3CCN(Cc4ncc(/C=C/C(=O)O)n4C[C@@H]4CCO4)CC3)c2O1 [Compound 1]
AUC(0-inf) ([1]; whole blood, iv, 1 mg/kg): 0.509 ± 0.389 µM·h
Vd ([1]; whole blood, iv, 1 mg/kg): 4.83 ± 1.79 L/kg
clearance ([1]; whole blood, iv, 1 mg/kg): 82.3 ± 51.7 mL/min/kg
half-life ([1]; whole blood, iv, 1 mg/kg): 1.06 ± 0.141 h
AUC(0-inf) ([1]; whole blood, po, 3 mg/kg): 0.538 ± 0.136 µM·h
Cmax ([1]; whole blood, po, 3 mg/kg): 240 ± 75.4 nM
Tmax ([1]; whole blood, po, 3 mg/kg): 0.75 ± 0.434 h
half-life ([1]; whole blood, po, 3 mg/kg): 1.22 ± 0.305 h

SMILES: CC(Cc1cnc(CN2CCC(c3cccc4c3O[C@@](C)(c3ccc(Cl)cc3F)O4)CC2)n1C[C@@H]1CCO1)C(=O)O (single isomer, unassigned) [Compound C-17a]
Emax (human GLP1R (hGLP1R)): 104%
EC50 (human GLP1R (hGLP1R)): 1.2 nM

SMILES: Cc1nc(CN2CCC(c3cccc4c3O[C@@](C)(c3ccc(Cl)cc3F)O4)CC2)n(C[C@@H]2CCO2)c1C12CC(C(=O)O)(C1)C2 [Compound C-23a, 3-(2-((4-((S)-2-(4-chloro-2-fluorophenyl)-2-methylbenzo[d][1,3]dioxol-4-yl)piperidin-1-yl)methyl)-4-methyl-1-(((S)-oxetan-2-yl)methyl)-1H-imidazol-5-yl)bicyclo[1.1.1]pentane-1-carboxylic acid]
Emax (human GLP1R (hGLP1R)): 107%
EC50 (human GLP1R (hGLP1R)): 1.2 nM

SMILES: Cc1c(C(=O)O)nc(CN2CCC(c3cccc4c3O[C@@](C)(c3ccc(Cl)cc3F)O4)CC2)n1C[C@@H]1CCO1 [Compound C-4, 2-((4-((S)-2-(4-chloro-2-fluorophenyl)-2-methylbenzo[d][1,3]dioxol-4-yl)piperidin-1-yl)methyl)-5-methyl-1-(((S)-oxetan-2-yl)methyl)-1H-imidazole-4-carboxylic acid]
Emax (human GLP1R (hGLP1R)): 109%
EC50 (human GLP1R (hGLP1R)): 8.28 nM
